Legend:
[1] = Relative inhibition of PDE6 and PDE5
Phosphodiesterase 6 = assay: Inhibition of phosphodiesterase 6 from bovine retina; type: protein assay, Bos taurus
Phosphodiesterase 1 = Phosphodiesterase 1 (Bos taurus, UniProt Q01061+P14100); assay: Inhibition of phosphodiesterase 1 from bovine heart; type: protein assay
[2] = Relative inhibition of PDE1 and PDE5
[3] = test system: Phosphodiesterase 3 and 5 (Oryctolagus cuniculus); assay: Relative inhibition of PDE3 and PDE5
[4] = target: Phosphodiesterase 3 (Oryctolagus cuniculus); assay: Inhibition of phosphodiesterase 3 from rabbit platelets

- IC50 ratio [1]: 15
- IC50 (Phosphodiesterase 6): 0.00258 µM
- IC50 (Phosphodiesterase 1): 0.156 µM
- IC50 ratio [2]: 918
- IC50 ratio [3]: > 15000
- IC50 [4]: 2.6 µM
Structure (SMILES): CCCOc1ccc(S(=O)(=O)N2CCC(CP(=O)(O)OCC)CC2)cc1-c1nc2c(CCC)nn(C)c2c(=O)[nH]1
